Experimental data taken from patent US7666834B2, “Macrocyclic inhibitors of hepatitis C virus” (Tibotec Pharmaceuticals Ltd., priority 2005, dated 2010).
Where two headings read alike, the source gives them in different places.

Legend:
[1] = rcm bond; 14-membered ring; Hoveyda-Grubbs II (25 mol%); DCE; 1.46 mM; 150.0 °C
HCV = details: sustained administration; mutations D168V, D168A and/or A156S; cited from earlier work
[2] = test system: HCV replicons (NS3-NS5B regions of HCV type 1b) in Huh-7 luc/neo cells; test: Replicon assay (Huh-Luc cells, luciferase readout); type: cell-based; details: Hepatitis C virus, Huh-7, 72 h, three days incubation, luciferase activity
Description: It will be appreciated that it is important to distinguish between compounds that specifically interfere with HCV functions from those that exert cytotoxic or cytostatic effects in the HCV replicon model, and as a consequence cause a decrease in HCV RNA or linked reporter enzyme concentration. Assays are known in the field for the evaluation of cellular cytotoxicity based for example on the activity of mitochondrial enzymes using fluorogenic redox dyes such as resazurin. Furthermore, cellular counter screens exist for the evaluation of non-selective inhibition of linked reporter gene activity, such as firefly luciferase.
The compounds of formula (I) were examined for activity in the inhibition of HCV RNA replication in a cellular assay. […] The cellular assay was based on a bicistronic expression construct, as described by Lohmann et al. (1999) Science vol. […]
The replicon cells were plated in 384 well plates in the presence of the test and control compounds which were added in various concentrations. Following an incubation of three days, HCV replication was measured by assaying luciferase activity (using standard luciferase assay substrates and reagents and a Perkin Elmer ViewLux™ ultraHTS microplate imager). […] The inhibitory activity of the compound on luciferase activity was monitored on the Huh-Luc cells, enabling a dose-response curve for each test compound.

HCV NS3/4A protease = HCV NS3/4A protease (Hepatitis C virus genotype 1a, UniProt P27958); test: biochemical; details: full-length NS3 protease 1 nM, 25 μM NS4A cofactor, competitive inhibition model; read-out: Ki (nM) Enzymatic assay
Description: [Landro, 1997 #Biochem 36 9340-9348]. […] The solutions were stored at −20° C. between measurements.

[3] = rcm bond, DCE

CN1CCCCC=CC2CC2(C(=O)NS(=O)(=O)C2CC2)NC(=O)C2CC(OC(=O)Nc3ccccc3N3CCCCC3)CC2C1=O (centres unmarked)
ring closure, yield after HPLC [1]: 36%

CCC[C@H](NC(=O)[C@@H]1[C@H]2CCC[C@H]2CN1C(=O)[C@@H](NC(=O)[C@@H](NC(=O)c1cnccn1)C1CCCCC1)C(C)(C)C)C(=O)C(=O)NC1CC1 [VX-950]
selection of drug escape mutants (HCV): selects HCV mutants which are resistant to the respective drug

CN1CCCC/C=C\[C@@H]2C[C@@]2(C(=O)NS(=O)(=O)C2CC2)NC(=O)[C@@H]2C[C@@H](OC(=O)Nc3ccccc3F)C[C@H]2C1=O [Compound 25, (2-Fluorophenyl)carbamic acid 4-cyclopropanesulfonyl-aminocarbonyl-13-methyl-2,14-dioxo-3,13-diazatricyclo[13.3.0.0^4,6]octadec-7-en-17-yl ester]
EC50 [2]: 8.4 µM | Ki (HCV NS3/4A protease): 51 nM

CCOC(=O)C12CC1C=CCCCCCN(Cc1ccc(OC)cc1)C(=O)N1CC(O[Si](C)(C)C(C)(C)C)CC1C(=O)N2 (centres unmarked)
ring closure, isolated yield ([3]; from C=CCCCCCN(Cc1ccc(OC)cc1)C(=O)N1CC(O[Si](C)(C)C(C)(C)C)CC1C(=O)NC1(C(=O)OCC)CC1C=C, 15-membered ring, Hoveyda-Grubbs II (10 mol%), 1.6 mM): 48%

COc1ccc2c(O[C@@H]3C[C@H]4C(=O)N[C@]5(C(=O)O)C[C@H]5/C=C\CCCCC[C@H](NC(=O)OC5CCCC5)C(=O)N4C3)cc(-c3csc(NC(C)C)n3)nc2c1 [BILN-2061]
selection of drug escape mutants (HCV): selects HCV mutants which are resistant to the respective drug

CN1CCCCC=CC2CC2(C(=O)NS(=O)(=O)C2CC2)NC(=O)C2CC(O)CC2C1=O (centres unmarked)
ring closure, isolated yield ([3]; 14-membered ring, Hoveyda-Grubbs II (15 mol%), 2.07 mM): 77%

CCOC(=O)c1ccccc1NC(=O)O[C@@H]1C[C@H]2C(=O)N[C@]3(C(=O)NS(=O)(=O)C4CC4)C[C@H]3/C=C\CCCCN(C)C(=O)[C@@H]2C1 [Compound 26, 2-(4-Cyclopropanesulfonylaminocarbonyl-13-methyl-2,14-dioxo-3,13-diaza-tricyclo-[13.3.0.0^4,6]octadec-7-en-17-yloxycarbonylamino)-benzoic acid ethyl ester]
EC50 [2]: 0.0492 µM
